Measured values reported in patent US20230416330A1, “Optimized GIP Peptide Analogues” (Antag Therapeutics ApS, priority 2019, published 2023).
Starred links: 1 amine or outer side, 2 acyl side, 3 side chain; linkers in the order of their positions; H or OH if unused. Non-standard residues stand in square brackets, D forms with d. Residues, ends and D or L forms follow the SMILES beside them. Groups on a side chain read outwards from the residue. *: point of attachment. C18 diacid = O=C(O)CCCCCCCCCCCCCCCCC(=O)*; C16 diacid = O=C(O)CCCCCCCCCCCCCCC(=O)*; γGlu = O=C(O)[C@H](CCC(=O)[*:2])N[*:1]; Glutaryl = O=C(CCCC(=O)[*:2])[*:1]; Nle = CCCC[C@H](N)C(=O)O; AEEA = NCCOCCOCC(=O)O; Aib = CC(C)(N)C(=O)O

Target: T1, human GIP receptor (Homo sapiens, UniProt P48546)
T1 construct: host or cells: HEK-293 cells, transient transfection (Lipofectamine 2000), cDNA in pCMV-Script vector
T1 sequence (P48546 22-466): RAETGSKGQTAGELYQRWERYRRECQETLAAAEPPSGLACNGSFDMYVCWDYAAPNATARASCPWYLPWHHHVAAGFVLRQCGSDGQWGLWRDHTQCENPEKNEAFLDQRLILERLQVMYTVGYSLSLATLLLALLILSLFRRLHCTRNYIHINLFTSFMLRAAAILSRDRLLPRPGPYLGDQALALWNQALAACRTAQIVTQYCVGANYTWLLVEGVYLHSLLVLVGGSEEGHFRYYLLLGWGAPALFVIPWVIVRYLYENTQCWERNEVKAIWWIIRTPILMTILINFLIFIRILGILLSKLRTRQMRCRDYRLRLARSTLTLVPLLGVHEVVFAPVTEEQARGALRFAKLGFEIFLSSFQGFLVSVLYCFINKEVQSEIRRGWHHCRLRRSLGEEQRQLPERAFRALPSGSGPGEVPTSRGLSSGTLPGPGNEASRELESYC
Experiment: cAMP assay Alternative 1 (CisBio assay), GIPR antagonism
Assay type: cell-based
Settings: Table 2B; % inhibition of Emax
Method: HEK293 cells were cultured in 10% CO2 and 37° C. in Dulbecco's modified Eagle's medium supplemented with 10% fetal bovine serum, 2 mM glutamine, 180 units/ml penicillin, and 45 µg/ml streptomycin. Transient transfection with hGIPR for the CisBio assay from Table 2C was performed by using Lipofectamine 2000.
The in vitro functional activity of compounds towards human GIP receptor can also be determined in HEK-293 cells transiently expressing the receptor. On the day of the assay, cells were resuspended in HBSS buffer (Gibco, 14025-50) supplemented with […] (Gibco, 15630-106), 0.1% Pluronic F-68 (Gibco, 24040-032) and 0.1% casein (Sigma, C4765), and plated in 384-well plates at a density of 5000 cells/well. The GIP peptide analogues of the present disclosure were diluted in HBSS buffer supplemented with 20 mM HEPES, 0.1% pluronic, 0.1% casein and 500 uM IBMX. […] The resulting decrease in intracellular cAMP was quantitatively determined using the CisBio cAMP Dynamic 2 HTRF Assay Kit. The assay is based on a competition between native cAMP produced by cells and cAMP labeled with the dye d2 for binding to a cryptate labeled antibody. The specific signal (i.e. energy transfer signal) is inversely proportional to the concentration of cAMP in the sample.
The cAMP-d2 conjugate and the antibody anti-cAMP-Cryptate, both diluted in lysis buffer provided in the kit, were added to the cells according to the manufacturer's protocol. The resulting competitive assay was incubated for 60 minutes at room temperature, and the signal was detected by using a PerkinElmer Envision® instrument with excitation at 320 nm and emission at 665 nm and 620 nm. The HTRF ratio (emission at 665 nm/620 nm*10,000) is inversely proportional to the amount of cAMP present and is converted to nM cAMP per well using a cAMP standard curve. The dose-response curves were fitted using the non-linear regression analysis (four-logistic parameter equation) in GraphPad Prism, whereby pIC50 values were estimated. To test for agonistic properties at the GIP receptor, compounds were diluted and added to cells as described above and incubated for 30 min at 37° C. The resulting increase in intracellular cAMP was determined using the CisBio cAMP Dynamic 2 HTRF Assay Kit as described above.
The dose-response curves were fitted using the non-linear regression analysis (four-logistic parameter equation) in GraphPad Prism, whereby pIC50 values were estimated.

SMILES | cAMP antagonism % inhib
CCCC[C@H](NC(=O)C(C)(C)NC(=O)[C@@H](NC(=O)[C@H](CO)NC(=O)[C@H](Cc1ccc(O)cc1)NC(=O)[C@H](CC(=O)O)NC(=O)[C@H](CO)NC(=O)[C@@H](NC(=O)[C@H](Cc1ccccc1)NC(=O)[C@@H](NC(=O)CNC(=O)[C@@H](N)CCC(=O)O)[C@@H](C)O)[C@@H](C)CC)[C@@H](C)CC)C(=O)N[C@@H](CC(=O)O)C(=O)N[C@@H](CCCCN)C(=O)N[C@H](C(=O)N[C@@H](CCCCNC(=O)CCCCCCCCCCCCCCC(=O)O)C(=O)N[C@@H](CCC(N)=O)C(=O)N[C@@H](CCC(N)=O)C(=O)N[C@@H](CC(=O)O)C(=O)N[C@@H](Cc1ccccc1)C(=O)N[C@H](C(=O)N[C@@H](CCC(=O)O)C(=O)N[C@@H](Cc1c[nH]c2ccccc12)C(=O)N[C@@H](CC(C)C)C(=O)N[C@@H](CC(C)C)C(=O)N[C@@H](C)C(=O)N[C@@H](CCC(N)=O)C(=O)N[C@@H](CCCCN)C(=O)N1CCC[C@H]1C(=O)N[C@@H](CO)C(=O)N[C@@H](CO)C(=O)NCC(=O)N[C@@H](C)C(=O)N1CCC[C@H]1C(=O)N1CCC[C@H]1C(=O)N1CCC[C@H]1C(=O)N[C@@H](CO)C(=O)O)C(C)C)[C@@H](C)CC [AT667] (H-EGTFISDYSI[Aib][Nle]DKIK(C16 diacid)QQDFVEWLLAQKPSSGAPPPS-OH; N-terminus assumed) | 86%
CCCC[C@H](NC(=O)[C@H](C)NC(=O)[C@@H](NC(=O)[C@H](CO)NC(=O)[C@H](Cc1ccc(O)cc1)NC(=O)[C@H](CC(=O)O)NC(=O)[C@H](CO)NC(=O)[C@@H](NC(=O)[C@H](Cc1ccccc1)NC(=O)[C@@H](NC(=O)CNC(=O)[C@@H](N)CCC(=O)O)[C@@H](C)O)[C@@H](C)CC)[C@@H](C)CC)C(=O)N[C@@H](CC(=O)O)C(=O)N[C@@H](CCCCN)C(=O)N[C@H](C(=O)N[C@@H](CCCCNC(=O)COCCOCCNC(=O)COCCOCCNC(=O)CC[C@H](NC(=O)CCCCCCCCCCCCCCCCC(=O)O)C(=O)O)C(=O)N[C@@H](CCC(N)=O)C(=O)N[C@@H](CCC(N)=O)C(=O)N[C@@H](CC(=O)O)C(=O)N[C@@H](Cc1ccccc1)C(=O)N[C@H](C(=O)N[C@@H](CCC(=O)O)C(=O)N[C@@H](Cc1c[nH]c2ccccc12)C(=O)N[C@@H](CC(C)C)C(=O)N[C@@H](CC(C)C)C(=O)N[C@@H](C)C(=O)N[C@@H](CCC(N)=O)C(=O)N[C@@H](CCCCN)C(=O)N1CCC[C@H]1C(=O)N[C@@H](CO)C(=O)N[C@@H](CO)C(=O)NCC(=O)N[C@@H](C)C(=O)N1CCC[C@H]1C(=O)N1CCC[C@H]1C(=O)N1CCC[C@H]1C(=O)N[C@@H](CO)C(=O)O)C(C)C)[C@@H](C)CC [AT683] (H-EGTFISDYSIA[Nle]DKIK([AEEA-AEEA-γGlu-C18 diacid])QQDFVEWLLAQKPSSGAPPPS-OH; N-terminus assumed) | 93%
CCCC[C@H](NC(=O)C(C)(C)NC(=O)[C@@H](NC(=O)[C@H](CO)NC(=O)[C@H](Cc1ccc(O)cc1)NC(=O)[C@H](CC(=O)O)NC(=O)[C@H](CO)NC(=O)[C@@H](NC(=O)[C@H](Cc1ccccc1)NC(=O)[C@@H](NC(=O)CNC(=O)[C@@H](N)CCC(=O)O)[C@@H](C)O)[C@@H](C)CC)[C@@H](C)CC)C(=O)N[C@@H](CC(=O)O)C(=O)N[C@@H](CCCCN)C(=O)N[C@H](C(=O)N[C@@H](CCCCNC(=O)COCCOCCNC(=O)COCCOCCNC(=O)CC[C@H](NC(=O)CCCCCCCCCCCCCCCCC(=O)O)C(=O)O)C(=O)N[C@@H](CCC(N)=O)C(=O)N[C@@H](CCC(N)=O)C(=O)N[C@@H](CC(=O)O)C(=O)N[C@@H](Cc1ccccc1)C(=O)N[C@H](C(=O)N[C@@H](CCC(=O)O)C(=O)N[C@@H](Cc1c[nH]c2ccccc12)C(=O)N[C@@H](CC(C)C)C(=O)N[C@@H](CC(C)C)C(=O)N[C@@H](C)C(=O)N[C@@H](CCC(N)=O)C(=O)N[C@@H](CCCCN)C(=O)N1CCC[C@H]1C(=O)N[C@@H](CO)C(=O)N[C@@H](CO)C(=O)NCC(=O)N[C@@H](C)C(=O)N1CCC[C@H]1C(=O)N1CCC[C@H]1C(=O)N1CCC[C@H]1C(=O)N[C@@H](CO)C(=O)O)C(C)C)[C@@H](C)CC [AT686] (H-EGTFISDYSI[Aib][Nle]DKIK([AEEA-AEEA-γGlu-C18 diacid])QQDFVEWLLAQKPSSGAPPPS-OH; N-terminus assumed) | 82%
CCCC[C@H](NC(=O)[C@H](C)NC(=O)[C@@H](NC(=O)[C@H](CO)NC(=O)[C@H](Cc1ccc(O)cc1)NC(=O)[C@H](CC(=O)O)NC(=O)[C@H](CO)NC(=O)[C@@H](NC(=O)[C@H](Cc1ccccc1)NC(=O)[C@@H](NC(=O)CNC(=O)CCCC(=O)O)[C@@H](C)O)[C@@H](C)CC)[C@@H](C)CC)C(=O)N[C@@H](CC(=O)O)C(=O)N[C@@H](CCCCN)C(=O)N[C@H](C(=O)N[C@@H](CCCCNC(=O)CCCCCCCCCCCCCCC(=O)O)C(=O)N[C@@H](CCC(N)=O)C(=O)N[C@@H](CCC(N)=O)C(=O)N[C@@H](CC(=O)O)C(=O)N[C@@H](Cc1ccccc1)C(=O)N[C@H](C(=O)N[C@@H](CCC(=O)O)C(=O)N[C@@H](Cc1c[nH]c2ccccc12)C(=O)N[C@@H](CC(C)C)C(=O)N[C@@H](CC(C)C)C(=O)N[C@@H](C)C(=O)N[C@@H](CCC(N)=O)C(=O)N[C@@H](CCCCN)C(=O)N1CCC[C@H]1C(=O)N[C@@H](CO)C(=O)N[C@@H](CO)C(=O)NCC(=O)N[C@@H](C)C(=O)N1CCC[C@H]1C(=O)N1CCC[C@H]1C(=O)N1CCC[C@H]1C(=O)N[C@@H](CO)C(=O)O)C(C)C)[C@@H](C)CC [AT700] (Glutaryl-GTFISDYSIA[Nle]DKIK(C16 diacid)QQDFVEWLLAQKPSSGAPPPS-OH) | 89%
CC[C@H](C)[C@H](NC(=O)[C@H](CO)NC(=O)[C@H](Cc1ccc(O)cc1)NC(=O)[C@H](CC(=O)O)NC(=O)[C@H](CO)NC(=O)[C@@H](NC(=O)[C@H](Cc1ccccc1)NC(=O)[C@@H](NC(=O)CNC(=O)[C@@H](N)CCC(=O)O)[C@@H](C)O)[C@@H](C)CC)C(=O)N[C@@H](C)C(=O)N[C@@H](CCSC)C(=O)N[C@@H](CC(=O)O)C(=O)N[C@@H](CCCCN)C(=O)N[C@H](C(=O)N[C@@H](CCCCNC(=O)CCCCCCCCCCCCCCC(=O)O)C(=O)N[C@@H](CCC(N)=O)C(=O)N[C@@H](CCC(N)=O)C(=O)N[C@@H](CC(=O)O)C(=O)N[C@@H](Cc1ccccc1)C(=O)N[C@H](C(=O)N[C@@H](CCC(=O)O)C(=O)N[C@@H](Cc1c[nH]c2ccccc12)C(=O)N[C@@H](CC(C)C)C(=O)N[C@@H](CC(C)C)C(=O)N[C@@H](C)C(=O)N[C@@H](CCC(N)=O)C(=O)N[C@@H](C)C(=O)N1CCC[C@H]1C(=O)N[C@@H](CO)C(=O)N[C@@H](CO)C(=O)NCC(=O)N[C@@H](C)C(=O)N1CCC[C@H]1C(=O)N1CCC[C@H]1C(=O)N1CCC[C@H]1C(=O)N[C@@H](CO)C(=O)O)C(C)C)[C@@H](C)CC [AT623] (H-EGTFISDYSIAMDKIK(C16 diacid)QQDFVEWLLAQAPSSGAPPPS-OH; N-terminus assumed) | 98%
CC[C@H](C)[C@H](NC(=O)[C@H](CO)NC(=O)[C@H](Cc1ccc(O)cc1)NC(=O)[C@H](CCC(=O)O)NC(=O)[C@H](CO)NC(=O)[C@@H](NC(=O)[C@H](Cc1ccccc1)NC(=O)[C@@H](NC(=O)CNC(=O)[C@@H](N)CCC(=O)O)[C@@H](C)O)[C@@H](C)CC)C(=O)N[C@@H](C)C(=O)N[C@@H](CCSC)C(=O)N[C@@H](CCC(=O)O)C(=O)N[C@@H](CCCCN)C(=O)N[C@H](C(=O)N[C@@H](CCCCNC(=O)CCCCCCCCCCCCCCC(=O)O)C(=O)N[C@@H](CCC(N)=O)C(=O)N[C@@H](CCC(N)=O)C(=O)N[C@@H](CCC(=O)O)C(=O)N[C@@H](Cc1ccccc1)C(=O)N[C@H](C(=O)N[C@@H](CCC(=O)O)C(=O)N[C@@H](Cc1c[nH]c2ccccc12)C(=O)N[C@@H](CC(C)C)C(=O)N[C@@H](CC(C)C)C(=O)N[C@@H](C)C(=O)N[C@@H](CCC(N)=O)C(=O)N[C@@H](CCCCN)C(=O)N1CCC[C@H]1C(=O)N[C@@H](CO)C(=O)N[C@@H](CO)C(=O)NCC(=O)N[C@@H](C)C(=O)N1CCC[C@H]1C(=O)N1CCC[C@H]1C(=O)N1CCC[C@H]1C(=O)N[C@@H](CO)C(=O)O)C(C)C)[C@@H](C)CC [AT614] (H-EGTFISEYSIAMEKIK(C16 diacid)QQEFVEWLLAQKPSSGAPPPS-OH; N-terminus assumed) | 100%
